Assay results from ChEMBL document CHEMBL1201862, “PubChem BioAssay data set” (2004).
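In this assay, cells in 96-well plates receive the compound at five concentrations for 48 hours. Endpoints are linearly interpolated between the surrounding concentrations. GI50 = concentration required for 50% inhibition of growth.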 Activity calls are given as the source filed them. Rule as the data show it: active = GI50 up to about 1.1 µM and inactive = higher.

Key:
Assay in all cases: growth of human tumour cells (NCI), 48 h
A498 = test system: A498
A549 = test system: A549
CAKI-1 = test system: CAKI-1
CCRF-CEM = test system: CCRF-CEM
COLO 205 = test system: COLO 205
EKVX = test system: EKVX
HCC 2998 = test system: HCC 2998
HL-60 = test system: HL-60
HOP-62 = test system: HOP-62
KM12 = test system: KM12
MCF7 = test system: MCF7
OVCAR-4 = test system: OVCAR-4
OVCAR-5 = test system: OVCAR-5
PC-3 = test system: PC-3
SK-MEL-2 = test system: SK-MEL-2
SNB-75 = test system: SNB-75
SR = test system: SR
TK-10 = test system: TK-10
UACC-257 = test system: UACC-257
UACC-62 = test system: UACC-62

Measured: GI50

OCCOc1ccccc2cccc1-2
inactive: A498 > 100 µM | A549 > 100 µM | CAKI-1 > 100 µM | CCRF-CEM > 100 µM | COLO 205 > 100 µM | EKVX > 100 µM | HCC 2998 > 100 µM | HL-60 > 100 µM | HOP-62 > 100 µM | KM12 > 100 µM | MCF7 > 100 µM | OVCAR-4 34 µM | OVCAR-5 > 100 µM | PC-3 > 100 µM | SK-MEL-2 > 100 µM | SNB-75 > 100 µM | SR 80 µM | TK-10 > 100 µM | UACC-257 > 100 µM | UACC-62 > 100 µM

Cc1cc(CS(=O)(=O)/C=C/c2ccccc2[N+](=O)[O-])c(CS(=O)(=O)/C=C/c2ccccc2[N+](=O)[O-])cc1C
inactive: A498 26.5 µM | A549 57.7 µM | CAKI-1 35.7 µM | CCRF-CEM 21.5 µM | COLO 205 > 100 µM | EKVX 29.9 µM | HCC 2998 > 85.3 µM | HL-60 > 79.4 µM | HOP-62 19.1 µM | KM12 81.8 µM | MCF7 8.13 µM | OVCAR-4 7.98 µM | OVCAR-5 > 57.1 µM | PC-3 42.4 µM | SK-MEL-2 15.4 µM | SNB-75 5.27 µM | SR 13.7 µM | TK-10 35.4 µM | UACC-257 > 65 µM | UACC-62 23.6 µM
